Patent US11851436B2, “Fused bicyclic pyrimidine derivatives and uses thereof” (The Regents of the University of Colorado, A Body Corporate, priority 2021, dated 2023)

How the values were obtained:
[1] = target: recombinant RSK2 kinase (Homo sapiens (Human), UniProt P51812); test: LANCE Eu TR-FRET recombinant RSK2 kinase inhibition assay; assay type: biochemical; conditions: for IC50: recombinant RSK2, 3 μM ATP, mean ± S.D. (n=3)
Description: All reagents were prepared in kinase buffer containing 2 mM DTT, 50 mM HEPES, 1 mM EGTA, 10 mM MgCl2, 0.01% Tween 20, pH 7.5. […] RSK2 was used at a final concentration of […]. […] Assays were performed at 25° C. in a reaction mixture consisting of 2 μL serially diluted inhibitor solution, 4 μL kinase, 2 μL substrate, and 2 μL ATP. Reagents were incubated at room temperature for 1 h before the reaction was stopped through the addition of 5 μL of EDTA at a final concentration of 10 mM.
The exemplary compounds were evaluated for their effect on RSK2 activity in the recombinant TR-FRET kinase inhibition assay and their half-maximal inhibitory potency values (IC50) were calculated using nonlinear regression analysis of the log dose-response.

[2] = tested on: MOLM-13 cells; test: MTS cellular viability assay in MOLM-13 cells; assay type: cell-based; conditions: Homo sapiens, 72 hr, 60 μM to 250 nM, n=3, ±S.D.
Description: Cell Culture: MOLM-13 (DSMZ) cells were cultured in RPMI1640 (Gibco) supplemented with 10% FBS (Sigma Aldrich) and 1% penicillin/streptomycin solution (Cellgro) at 37° C. in an incubator humidifier with 95% air and 5% CO2. HEK293 cells (ATCC) were cultured in Dulbecco's Modified Eagle Medium (DMEM; Gibco) supplemented with 10% FBS (Sigma Aldrich) and 1% penicillin/streptomycin solution (Cellgro) at 37° C. in an incubator humidifier with 95% air and 5% CO2. HEK293 cells were allowed to adhere for 24 h prior to use in assays.
MTS Cellular Viability Assay: MOLM-13 cells were seeded into sterile 96-well plates (Corning) at 60,000 cells per well in 100 μL of media. Inhibitor solutions were administered in 50 μL over a concentration range from 60 μM to 247 nM and cells were incubated at 37° C. for 24 to 72 h. Following 3 h incubation with 30 μL CellTiter 96® Aqueous One Cell Proliferation Reagent (Promega), cell viability was measured by formazan concentration assessment through colorimetric analysis using a BioTek Synergy H1 Hybrid plate reader (Absorption=490).
Exemplary compounds were assessed in cell systems for effects on cell viability, as well as their ability to inhibit cellular RSK2 activity.

Chain of recombinant RSK2 kinase (P51812 whole entry): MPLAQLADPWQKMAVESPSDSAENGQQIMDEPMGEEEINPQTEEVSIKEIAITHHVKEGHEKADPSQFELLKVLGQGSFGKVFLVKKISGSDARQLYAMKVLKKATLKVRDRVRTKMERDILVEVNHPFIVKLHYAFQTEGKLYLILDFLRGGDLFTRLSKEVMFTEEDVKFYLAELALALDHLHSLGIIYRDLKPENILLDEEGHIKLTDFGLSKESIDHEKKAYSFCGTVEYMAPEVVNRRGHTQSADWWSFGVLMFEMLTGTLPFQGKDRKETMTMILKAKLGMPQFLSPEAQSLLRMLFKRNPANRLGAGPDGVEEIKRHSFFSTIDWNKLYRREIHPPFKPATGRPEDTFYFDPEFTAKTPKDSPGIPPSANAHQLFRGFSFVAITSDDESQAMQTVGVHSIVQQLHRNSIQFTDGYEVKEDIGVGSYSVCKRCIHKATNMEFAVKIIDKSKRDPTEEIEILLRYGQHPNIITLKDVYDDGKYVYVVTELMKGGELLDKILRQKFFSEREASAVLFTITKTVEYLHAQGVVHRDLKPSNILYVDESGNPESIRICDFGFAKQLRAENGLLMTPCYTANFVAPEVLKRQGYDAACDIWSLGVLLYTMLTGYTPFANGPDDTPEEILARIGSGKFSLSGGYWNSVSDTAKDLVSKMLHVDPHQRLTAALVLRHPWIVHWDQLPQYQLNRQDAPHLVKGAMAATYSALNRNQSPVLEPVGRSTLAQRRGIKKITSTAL

Structure (SMILES) | IC50 [1] [nM] | EC50 [2] [nM] | activity rank in the recombinant kinase assay ([1]; statement in pharmacophore modeling text)
CC(C)CCn1cnc2cnc(Nc3cc(F)c(O)c(F)c3)nc21 [A1-2, 2,6-Difluoro-4-((9-isopentyl-9H-purin-2-yl)amino)phenol] | 55.5 ± 5.6 | 970 ± 100 | 
Oc1c(F)cc(Nc2ncc3ncn(-c4ccc(N5CCOCC5)cc4)c3n2)cc1F [A1-3, 2,6-Difluoro-4-((9-(4-morpholinophenyl)-9H-purin-2-yl)amino)phenol] | 24.6 ± 3 |  | 
Oc1c(F)cc(Nc2ncc3ncn(-c4ccc(CCN5CCOCC5)cc4)c3n2)cc1F [A1-4, 2,6-Difluoro-4-((9-(4-(2-morpholinoethyl)phenyl)-9H-purin-2-yl)amino)phenol] | 18.4 ± 4 | 1900 ± 70 | 
Oc1c(F)cc(Nc2ncc3ncn(-c4cccc(Oc5ccccc5)c4)c3n2)cc1F [A1-6, 2,6-Difluoro-4-((9-(3-phenoxyphenyl)-9H-purin-2-yl)amino)phenol] | 329 ± 37 |  | 
Oc1c(F)cc(Nc2ncc3ncn(-c4ccc(Oc5ccccc5)cc4)c3n2)cc1F [A1-7, 2,6-Difluoro-4-((9-(4-phenoxyphenyl)-9H-purin-2-yl)amino)phenol] | 148 ± 27 |  | 
Oc1cccc(-n2cnc3cnc(Nc4cc(F)c(O)c(F)c4)nc32)c1 [A1-10, 2,6-Difluoro-4-((9-(3-hydroxyphenyl)-9H-purin-2-yl)amino)phenol] | 79.8 ± 4.6 |  | 
Oc1ccc(-n2cnc3cnc(Nc4cc(F)c(O)c(F)c4)nc32)cc1 [A1-11, 2,6-Difluoro-4-((9-(4-hydroxyphenyl)-9H-purin-2-yl)amino)phenol] | 81.8 ± 0.7 |  | 
COC(=O)CCc1ccc(-n2cnc3cnc(Nc4cc(F)c(O)c(F)c4)nc32)cc1 [A1-12, Methyl 3-(4-(2-((3,5-difluoro-4-hydroxyphenyl)amino)-9H-purin-9-yl)phenyl)-propanoate] | 15.7 ± 4 |  | 
COC(=O)CCCc1ccc(-n2cnc3cnc(Nc4cc(F)c(O)c(F)c4)nc32)cc1 [A1-13, Methyl 4-(4-(2-((3,5-difluoro-4-hydroxyphenyl)amino)-9H-purin-9-yl)phenyl)butanoate] | 17.8 ± 1 | 13900 ± 700 | most active molecule
CC(C)CCn1ccc2cnc(Nc3cc(F)c(O)c(F)c3)nc21 [A1-15, 2,6-Difluoro-4-((7-isopentyl-7H-pyrrolo[2,3-d]pyrimidin-2-yl)amino)phenol] | 95.8 ± 11 | 1300 ± 60 | 
Oc1c(F)cc(Nc2ncc3ccn(-c4ccc(N5CCOCC5)cc4)c3n2)cc1F [A1-16, 2,6-Difluoro-4-((7-(4-morpholinophenyl)-7H-pyrrolo[2,3-d]pyrimidin-2-yl)amino)phenol] | 25.7 ± 2.4 | 230 ± 3 | 
CN1CCN(c2ccc(-n3ccc4cnc(Nc5cc(F)c(O)c(F)c5)nc43)cc2)CC1 [A1-17, 2,6-Difluoro-4-((7-(4-(4-methylpiperazin-1-yl)phenyl)-7H-pyrrolo[2,3-d]pyrimidin-2-yl)amino)phenol] | 34.7 ± 1.3 | 70 ± 3 | 
